Measured values published in ChEMBL document CHEMBL3856280, “Targeting the HSP60/10 chaperonin systems of Trypanosoma brucei as a strategy for treating African sleeping sickness” (Bioorg Med Chem Lett, 2016).
One block for each compound: values may come before it.

Experiments:
[1] = tested on: Trypanosoma brucei brucei; assay: Antitrypanosomal activity against Trypanosoma brucei brucei Lister 427 VSG 221 [TetR T7RNAP] transgenic bloodstream forms assessed as reduction in cell viability after 48 hrs by alamar blue assay; type: functional; conditions: Lister 427 VSG 221, 48 h
E. coli GroEL/ES [2] = biological target: T1, E. coli GroEL/ES (Escherichia coli, UniProt P0A6F5); assay: Inhibition of Escherichia coli GroEL/GroES expressed in Escherichia coli DH5alpha/BL21 (DE3) assessed as inhibition of denatured MDH refolding preincubated for 10 mins followed by ATP addition measured after 20 to 40 mins by fluorescence based assay
T1 sequence (P0A6F5 whole entry, looked up): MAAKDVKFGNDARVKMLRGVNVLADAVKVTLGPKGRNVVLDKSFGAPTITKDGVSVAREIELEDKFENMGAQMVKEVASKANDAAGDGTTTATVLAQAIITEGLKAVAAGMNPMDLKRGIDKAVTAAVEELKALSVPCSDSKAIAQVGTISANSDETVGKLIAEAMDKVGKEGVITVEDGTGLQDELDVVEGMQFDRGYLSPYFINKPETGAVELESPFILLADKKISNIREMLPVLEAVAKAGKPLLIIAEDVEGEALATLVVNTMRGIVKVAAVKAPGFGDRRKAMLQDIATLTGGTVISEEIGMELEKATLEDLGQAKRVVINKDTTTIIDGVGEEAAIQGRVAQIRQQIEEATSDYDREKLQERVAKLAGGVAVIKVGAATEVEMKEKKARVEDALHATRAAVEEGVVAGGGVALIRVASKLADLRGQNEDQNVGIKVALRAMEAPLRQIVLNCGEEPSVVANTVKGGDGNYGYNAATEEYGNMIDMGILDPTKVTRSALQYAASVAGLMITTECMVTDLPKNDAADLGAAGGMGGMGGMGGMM

HSP60/HSP10 [3] = biological target: T2, HSP60/HSP10 (Homo sapiens, UniProt P10809); assay: Inhibition of human mitochondrial HSP60/HSP10 expressed in Escherichia coli DH5alpha/BL21 (DE3) assessed as inhibition of denatured MDH refolding preincubated for 10 mins followed by ATP addition measured after 40 to 60 mins by fluorescence based assay
T2 sequence (P10809 whole entry): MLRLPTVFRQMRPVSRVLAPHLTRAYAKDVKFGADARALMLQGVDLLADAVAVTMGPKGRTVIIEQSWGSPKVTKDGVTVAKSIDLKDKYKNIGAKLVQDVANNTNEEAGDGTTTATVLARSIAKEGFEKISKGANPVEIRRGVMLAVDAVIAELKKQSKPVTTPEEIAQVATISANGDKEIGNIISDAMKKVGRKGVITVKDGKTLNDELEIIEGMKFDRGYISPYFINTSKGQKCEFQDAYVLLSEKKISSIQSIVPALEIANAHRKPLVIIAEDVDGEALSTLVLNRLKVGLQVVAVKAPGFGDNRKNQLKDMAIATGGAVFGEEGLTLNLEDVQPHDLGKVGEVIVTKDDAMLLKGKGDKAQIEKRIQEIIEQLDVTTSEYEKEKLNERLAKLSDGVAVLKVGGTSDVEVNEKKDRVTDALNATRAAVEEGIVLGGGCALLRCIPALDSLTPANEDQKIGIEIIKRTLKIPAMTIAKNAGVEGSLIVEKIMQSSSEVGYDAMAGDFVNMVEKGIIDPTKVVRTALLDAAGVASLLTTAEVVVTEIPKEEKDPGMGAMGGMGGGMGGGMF
T2 sequence (P61604 whole entry, further chain): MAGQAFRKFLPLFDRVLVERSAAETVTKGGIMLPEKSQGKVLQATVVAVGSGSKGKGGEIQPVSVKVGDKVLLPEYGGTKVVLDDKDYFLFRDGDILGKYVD

E. coli GroEL/ES [4] = biological target: T1, E. coli GroEL/ES; assay: Inhibition of Escherichia coli GroEL/GroES-ATPase activity expressed in Escherichia coli DH5alpha/BL21 (DE3) assessed as inhibition of denatured MDH refolding preincubated for 10 mins followed by ATP addition measured after 20 to 40 mins by malachite green dye based fluorescence assay
HSP60/HSP10 [5] = biological target: T2, HSP60/HSP10; assay: Inhibition of human mitochondrial HSP60/HSP10-ATPase activity expressed in Escherichia coli DH5alpha/BL21 (DE3) assessed as inhibition of denatured MDH refolding preincubated for 10 mins followed by ATP addition measured after 40 to 60 mins by malachite green dye based fluorescence assay
[6] = Cytotoxicity against human THLE3 cells assessed as reduction in cell viability after 48 hrs by alamar blue assay; type: toxicity, cell-based
[7] = Cytotoxicity against HEK293 cells assessed as reduction in cell viability after 48 hrs by alamar blue assay; type: toxicity, cell-based; conditions: human
[8] = Inhibition of pig heart native MDH reporter reaction after 20 to 40 mins by fluorescence based assay; set-up: species or system Sus scrofa

Structure (SMILES): Nc1ccccc1S(=O)(=O)Nc1ccc(-c2nc3cc(NS(=O)(=O)c4ccccc4N)ccc3o2)cc1
EC50 [1]: 3.3 µM | IC50 (E. coli GroEL/ES [2]): 10 µM | IC50 (HSP60/HSP10 [3]): > 100 µM | IC50 (E. coli GroEL/ES [4]): > 250 µM | IC50 (HSP60/HSP10 [5]): > 250 µM | EC50 at 48 h [6]: 18 µM | EC50 at 48 h [7]: 14 µM | IC50 [8]: > 63 µM

Structure (SMILES): O=[N+]([O-])c1ccc(S(=O)(=O)Nc2ccc(-c3nc4cc(NS(=O)(=O)c5ccc([N+](=O)[O-])cc5)ccc4o3)cc2)cc1
EC50 [1]: 15 µM | IC50 (E. coli GroEL/ES [2]): 26 µM | IC50 (HSP60/HSP10 [3]): 65 µM | IC50 (E. coli GroEL/ES [4]): > 250 µM | IC50 (HSP60/HSP10 [5]): > 250 µM | EC50 at 48 h [6]: 36 µM | EC50 at 48 h [7]: 59 µM | IC50 [8]: > 63 µM

Structure (SMILES): COC(=O)c1ccccc1S(=O)(=O)Nc1ccc(-c2nc3cc(NS(=O)(=O)c4ccccc4C(=O)OC)ccc3o2)cc1
EC50 [1]: 28 µM | IC50 (E. coli GroEL/ES [2]): 36 µM | IC50 (HSP60/HSP10 [3]): > 100 µM | IC50 (E. coli GroEL/ES [4]): 53 µM | IC50 (HSP60/HSP10 [5]): > 250 µM | EC50 at 48 h [6]: > 100 µM | EC50 at 48 h [7]: > 100 µM | IC50 [8]: > 63 µM

Structure (SMILES): Nc1cccc(S(=O)(=O)Nc2ccc(-c3nc4cc(NS(=O)(=O)c5cccc(N)c5)ccc4o3)cc2)c1
EC50 [1]: 15 µM | IC50 (E. coli GroEL/ES [2]): 2.8 µM | IC50 (HSP60/HSP10 [3]): 87 µM | IC50 (E. coli GroEL/ES [4]): 9.6 µM | IC50 (HSP60/HSP10 [5]): 127 µM | EC50 at 48 h [6]: 30 µM | EC50 at 48 h [7]: 58 µM | IC50 [8]: > 63 µM

Structure (SMILES): O=[N+]([O-])c1ccccc1S(=O)(=O)Nc1ccc(-c2nc3cc(NS(=O)(=O)c4ccccc4[N+](=O)[O-])ccc3o2)cc1
EC50 [1]: > 42 µM | IC50 (E. coli GroEL/ES [2]): 3.6 µM | IC50 (HSP60/HSP10 [3]): 75 µM | IC50 (E. coli GroEL/ES [4]): 3.1 µM | IC50 (HSP60/HSP10 [5]): 194 µM | EC50 at 48 h [6]: 93 µM | EC50 at 48 h [7]: 60 µM | IC50 [8]: > 63 µM

Structure (SMILES): O=C(O)c1ccc(S(=O)(=O)Nc2ccc(-c3nc4cc(NS(=O)(=O)c5ccc(C(=O)O)cc5)ccc4o3)cc2)cc1
EC50 [1]: > 42 µM | IC50 (E. coli GroEL/ES [2]): 83 µM | IC50 (HSP60/HSP10 [3]): > 100 µM | IC50 (E. coli GroEL/ES [4]): > 250 µM | IC50 (HSP60/HSP10 [5]): > 250 µM | EC50 at 48 h [6]: > 100 µM | EC50 at 48 h [7]: > 100 µM | IC50 [8]: > 63 µM

Structure (SMILES): O=S(=O)(Nc1ccc(-c2nc3cc(NS(=O)(=O)c4ccc(O)cc4)ccc3o2)cc1)c1ccc(O)cc1
EC50 [1]: 21 µM | IC50 (E. coli GroEL/ES [2]): 0.34 µM | IC50 (HSP60/HSP10 [3]): 11 µM | IC50 (E. coli GroEL/ES [4]): 0.31 µM | IC50 (HSP60/HSP10 [5]): 59 µM | EC50 at 48 h [6]: 41 µM | EC50 at 48 h [7]: 38 µM | IC50 [8]: 50 µM

Structure (SMILES): NCCCC(N)(C(=O)O)C(F)F (stereo not drawn) [EFLORNITHINE]
EC50 [1]: > 42 µM | IC50 (E. coli GroEL/ES [2]): > 100 µM | IC50 (HSP60/HSP10 [3]): > 100 µM | IC50 (E. coli GroEL/ES [4]): > 250 µM | IC50 (HSP60/HSP10 [5]): > 250 µM | EC50 at 48 h [6]: > 100 µM | EC50 at 48 h [7]: > 100 µM | IC50 [8]: > 63 µM

Structure (SMILES): CC1CS(=O)(=O)CCN1/N=C/c1ccc([N+](=O)[O-])o1 (stereo not drawn) [NIFURTIMOX]
EC50 [1]: 2.8 µM | IC50 (E. coli GroEL/ES [2]): > 100 µM | IC50 (HSP60/HSP10 [3]): > 100 µM | IC50 (E. coli GroEL/ES [4]): > 250 µM | IC50 (HSP60/HSP10 [5]): > 250 µM | EC50 at 48 h [6]: > 100 µM | EC50 at 48 h [7]: > 100 µM | IC50 [8]: > 63 µM

Structure (SMILES): N=C(N)c1ccc(OCCCCCOc2ccc(C(=N)N)cc2)cc1 [PENTAMIDINE]
EC50 [1]: < 0.019 µM | IC50 (E. coli GroEL/ES [2]): > 100 µM | IC50 (HSP60/HSP10 [3]): > 100 µM | IC50 (E. coli GroEL/ES [4]): > 250 µM | IC50 (HSP60/HSP10 [5]): > 250 µM | EC50 at 48 h [6]: 19 µM | EC50 at 48 h [7]: > 100 µM | IC50 [8]: > 63 µM

EC50 [1]: 0.12 µM | IC50 (E. coli GroEL/ES [2]): 7.9 µM | IC50 (HSP60/HSP10 [3]): 11 µM | IC50 (E. coli GroEL/ES [4]): > 250 µM | IC50 (HSP60/HSP10 [5]): > 250 µM | IC50 [8]: > 63 µM
Structure (SMILES): Cc1ccc(C(=O)Nc2ccc(S(=O)(=O)O)c3cc(S(=O)(=O)O)cc(S(=O)(=O)O)c23)cc1NC(=O)c1cccc(NC(=O)Nc2cccc(C(=O)Nc3cc(C(=O)Nc4ccc(S(=O)(=O)O)c5cc(S(=O)(=O)O)cc(S(=O)(=O)O)c45)ccc3C)c2)c1 [SURAMIN]
EC50 at 48 h [6]: > 100 µM | EC50 at 48 h [7]: > 100 µM
